Measurements published in patent US11690899B2, “Combination of bactericidal agent with a lysosomotropic alkalinising agent for the treatment of a bacterial infection” (priority 2015, dated 2023).

Assays:
S. aureus Cowan [1] = experiment: In vivo infection model: mice infected intraperitoneally with S. aureus Cowan; parameters: species or system Staphylococcus aureus
Procedure: Mice were infected with S. aureus Cowan intraperitoneally. Six hours and two days post-infection mice were treated with 1 mg flucloxacillin and 0.2 mg chloroquine (+CQ). Mice treated with flucloxacillin only served as control (−CQ). †, sacrifice (a). Colony phenotypes of bacteria recovered from target tissues (b), peripheral blood and peritoneal lavage (c) were determined and enumerated. Each point represents one mouse. Horizontal bars indicate mean±SEM, n=11 mice per group. PL, peritoneal lavage. Two-way ANOVA found the factor treatment to be significant (p-value<0.01).
Mice infected with S. aureus Cowan were treated with flucloxacillin alone (control), or in combination with chloroquine (FIG. 5a).

S. aureus Cowan [2] = experiment: S. aureus Cowan-infected A549 cells treated with flucloxacillin and lysosomotropic alkalinizing agents (intracellular persisters, SCVs); type: cell-based, Staphylococcus aureus; settings: for effect on phagolysosomal pH: infected host cells
Procedure: Reduction of S. aureus persisters through phagolysosome alkalinization. S. aureus Cowan-infected A549 cells were treated with flucloxacillin alone (control) or supplemented with lysosomotropic alkalinizing agents (chloroquine (a), bafilomycin A1 (b) and ammonium chloride (c)). Colony phenotypes of viable intracellular persisting bacteria were determined and enumerated at indicated time points. Data were pooled from three independent experiments done in triplicates, mean±SEM. Two-way ANOVA found the factors time and treatment to be significant (p-value<0.01).
MSSA strain Cowan is highly invasive, but not cytotoxic which allowed maintaining this strain intracellularly over several days in the lung epithelial cell line A549. Extracellular bacteria were killed by adding a high dose of flucloxacillin to the infected host cells. Flucloxacillin is typically used to treat S. aureus endocarditis in patients. Absence of extracellular bacteria was confirmed by sterility of culture supernatants. Host cells were lysed to release intracellular bacteria and colony counts, as well as colony phenotypes, were determined at various time points. […] The number of viable intracellular persisting bacteria decreased during the course of infection while the frequency of SCVs increased and reached 5.6% after seven days.
No differences in total colony counts between control and treated cells were observed. […] No significant differences in host cell viability were observed after treatment with the alkalinizing agents.
Growth resumption of S. aureus persisters through treatment of host cells with chloroquine was assessed. […] We observed no dividing bacteria in infected host cells without chloroquine treatment.

| Structure (SMILES) | frequency of SCVs in various organs and compartments (S. aureus Cowan [1]; 1 mg flucloxacillin and 0.2 mg chloroquine at six hours and two days post-infection vs flucloxacillin only) | absolute bacterial numbers (S. aureus Cowan [1]; flucloxacillin with vs without chloroquine) | effect on phagolysosomal pH (S. aureus Cowan [2]) | bacterial cell division (transmission electron microscopy) (S. aureus Cowan [2]; three days post-infection, vs host cells without chloroquine) |
| --- | --- | --- | --- | --- |
| CCN(CC)CCCC(C)Nc1ccnc2cc(Cl)ccc12 (stereo not drawn) [Chloroquine, chloroquine] | significantly reduced | comparable | neutralized the phagolysosomal pH | facilitated bacterial cell division |
| Cl.N [ammonium chloride] |  |  | neutralized the phagolysosomal pH |  |
| CO/C1=C\C(C)=C\[C@@H](C)[C@@H](O)[C@@H](C)C/C(C)=C/C=C/[C@H](OC)[C@@H]([C@@H](C)[C@@H](O)[C@H](C)[C@@]2(O)C[C@@H](O)[C@H](C)[C@@H](C(C)C)O2)OC1=O [bafilomycin A1] |  |  | neutralized the phagolysosomal pH |  |
